From patent EP0338372A2, “Solubilized pro-drugs” (AMERICAN CYANAMID COMPANY, priority 1988, dated 1989)

Assays:
[1] = tested on: lymphocytic leukemia P388; assay: Lymphocytic leukemia P388 test; assay type: in vivo, BDF1 mice
melanotic melanoma B16 = assay: Melanotic Melanoma B16 test; assay type: in vivo, BDF1 mice
[2] = Dose 25 mg/kg intraperitoneally on days 1, 5 and 9
[3] = Dose 50 mg/kg intraperitoneally on days 1, 5 and 9
[4] = Dose 100 mg/kg intraperitoneally on days 1, 5 and 9
[5] = Dose 200 mg/kg intraperitoneally on days 1, 5 and 9
[6] = Dose 12.5 mg/kg intraperitoneally on days 1, 5 and 9
[7] = Dose 3.12 mg/kg intraperitoneally on days 1, 5 and 9
[8] = Dose 6.25 mg/kg intraperitoneally on days 1, 5 and 9
[9] = Dose 12.25 mg/kg intraperitoneally on days 1, 5 and 9

O=C(c1ccccc1F)N1CCN=C1N(N=Cc1c2ccccc2c(C=NN(C(=O)c2ccccc2F)C2=NCCN2C(=O)c2ccccc2F)c2ccccc12)C(=O)c1ccccc1F [2,2'-(9,10-Anthracenediyldimethylidyne)bis[1-[1-(2-fluorobenzoyl)-4,5-dihydro-1H-imidazol-2-yl] hydrazide] of 2-fluorobenzoic acid]
Median Survival [1, 2]: 12 days | T/C x 100 % [1, 2]: 109% | Median Survival [1, 3]: 13 days | T/C x 100 % [1, 3]: 118% | Median Survival [1, 4]: 13 days | T/C x 100 % [1, 4]: 118% | Median Survival [1, 5]: 12 days | T/C x 100 % [1, 5]: 109%

CC(C)(C)CC(=O)N1CCN=C1N(N=Cc1c2ccccc2c(C=NN(C(=O)CC(C)(C)C)C2=NCCN2C(=O)CC(C)(C)C)c2ccccc12)C(=O)CC(C)(C)C [2,2'-(9,10-Anthracenediyldimethylidyne)bis[1-[1-(3,3-dimethyl-1-oxobutyl)-4,5-dihydro-1H-imidazol-2-yl]-hydrazide] of 3,3-dimethylbutanoic acid]
Median Survival [1, 4]: 12 days | T/C x 100 % [1, 4]: 109% | Median Survival [1, 5]: 13 days | T/C x 100 % [1, 5]: 118%

N#Cc1ccc(C(=O)N2CCN=C2N(N=Cc2c3ccccc3c(C=NN(C(=O)c3ccc(C#N)cc3)C3=NCCN3C(=O)c3ccc(C#N)cc3)c3ccccc23)C(=O)c2ccc(C#N)cc2)cc1 [2,2'-(9,10-Anthracenediyldimethylidyne)bis[1-[1-(4-cyanobenzoyl)-4,5-dihydro-1H-imidazol-2-yl] hydrazide] of 4-cyanobenzoic acid]
Median Survival [1, 2]: 12 days | T/C x 100 % [1, 2]: 109% | Median Survival [1, 3]: 12.5 days | T/C x 100 % [1, 3]: 114% | Median Survival [1, 4]: 14.5 days | T/C x 100 % [1, 4]: 132% | Median Survival [1, 5]: 14.5 days | T/C x 100 % [1, 5]: 132%

CCCC(=O)N1CCN=C1NN=Cc1c2ccccc2c(C=NNC2=NCCN2C(=O)CCC)c2ccccc12 [2,2-(9,10-Anthracenediylbis(methylidyne-1-hydrazinyl-2-ylidene)]bis4,5-dihydro-1-(1-oxobutyl)-1H-imidazole]]
Median Survival [1, 6]: 12.5 days | T/C x 100 % [1, 6]: 125% | Median Survival [1, 2]: 12.5 days | T/C x 100 % [1, 2]: 125% | Median Survival [1, 3]: 14 days | T/C x 100 % [1, 3]: 140% | Median Survival [1, 4]: 14.5 days | T/C x 100 % [1, 4]: 145% | Median Survival [1, 5]: 15.5 days | T/C x 100 % [1, 5]: 155% | Median Survival (melanotic melanoma B16; [2]): 26 days | T/C x 100 % (melanotic melanoma B16; [2]): 118% | Median Survival (melanotic melanoma B16; [3]): 24.5 days | T/C x 100 % (melanotic melanoma B16; [3]): 111% | Median Survival (melanotic melanoma B16; [4]): 28.5 days | T/C x 100 % (melanotic melanoma B16; [4]): 130% | Median Survival (melanotic melanoma B16; [5]): 27.5 days | T/C x 100 % (melanotic melanoma B16; [5]): 125%

COc1ccc(C(=O)N2CCN=C2N(N=Cc2c3ccccc3c(C=NN(C(=O)c3ccc(OC)cc3)C3=NCCN3C(=O)c3ccc(OC)cc3)c3ccccc23)C(=O)c2ccc(OC)cc2)cc1 [2,2'-(9,10-Anthracenediyldimethylidyne)bis[1-[4,5-dihydro-1-(4-methoxybenzoyl)-1H-imidazol-2-yl] hydrazide] of 4-methoxybenzoic acid]
Median Survival [1, 5]: 16 days | T/C x 100 % [1, 5]: 139%

COCC(=O)N1CCN=C1N(N=Cc1c2ccccc2c(C=NN(C(=O)COC)C2=NCCN2C(=O)COC)c2ccccc12)C(=O)COC [2,2-(9,10-Anthracenediyldimethylidyne)bis[1-[4,5-dihydro-1-(methoxyacetyl)-1H-imidazo)-2-yl]hydrazide] of Methoxyacetic Acid]
Median Survival [1, 7]: 14.5 days | T/C x 100 % [1, 7]: 132% | Median Survival [1, 6]: 16.5 days | T/C x 100 % [1, 6]: 150% | Median Survival [1, 3]: 16.5 days | T/C x 100 % [1, 3]: 150% | Median Survival [1, 5]: 16.5 days | T/C x 100 % [1, 5]: 150%

CC(=O)N1CCN=C1N(N=Cc1c2ccccc2c(C=NN(C(C)=O)C2=NCCN2)c2ccccc12)C(C)=O [2-[[10-[[Acetyl(1-acetyl-4,5-dihydro-1H-imidazol-2-yl)hydrazono]methyl]-9-anthracenyl]methylene]-1-(4,5-dihydro-1H-imidazol-2-yl)hydrazide of Acetic Acid]
Median Survival [1, 8]: 12.5 days | T/C x 100 % [1, 8]: 125% | Median Survival [1, 6]: 13 days | T/C x 100 % [1, 6]: 130% | Median Survival [1, 2]: 15.5 days | T/C x 100 % [1, 2]: 155% | Median Survival [1, 3]: 16.5 days | T/C x 100 % [1, 3]: 165% | Median Survival [1, 4]: 17 days | T/C x 100 % [1, 4]: 170% | Median Survival [1, 5]: 17.5 days | T/C x 100 % [1, 5]: 175% | Median Survival (melanotic melanoma B16; [6]): 28 days | T/C x 100 % (melanotic melanoma B16; [6]): 127% | Median Survival (melanotic melanoma B16; [2]): 30 days | T/C x 100 % (melanotic melanoma B16; [2]): 136% | Median Survival (melanotic melanoma B16; [3]): 29.5 days | T/C x 100 % (melanotic melanoma B16; [3]): 134% | Median Survival (melanotic melanoma B16; [4]): 37 days | T/C x 100 % (melanotic melanoma B16; [4]): 168% | Median Survival (melanotic melanoma B16; [5]): 40 days | T/C x 100 % (melanotic melanoma B16; [5]): 182%

O=CN1CCN=C1N(C=O)N=Cc1c2ccccc2c(C=NN(C=O)C2=NCCN2C=O)c2ccccc12 [2,2'-[9,10-Anthracenediylbis[methylidyne(1-formyl-1-hydrazinyl-2-ylidene)]]bis[4,5-dihydro-1H-imidazole-1-carboxaldehyde]]
Median Survival [1, 6]: 10.5 days | T/C x 100 % [1, 6]: 105% | Median Survival [1, 3]: 11 days | T/C x 100 % [1, 3]: 110% | Median Survival [1, 5]: 11.5 days | T/C x 100 % [1, 5]: 115%

O=C(c1c(F)c(F)c(F)c(F)c1F)N1CCN=C1N(N=Cc1c2ccccc2c(C=NN(C(=O)c2c(F)c(F)c(F)c(F)c2F)C2=NCCN2C(=O)c2c(F)c(F)c(F)c(F)c2F)c2ccccc12)C(=O)c1c(F)c(F)c(F)c(F)c1F [2,2'-(9,10-Anthracenediyldimethylidyne)bis[1-[4,5-dihydro-1-(pentafluoro-1H-imidazol-2-yl)hydra-zide] of pentafluorobenzoic acid]
Median Survival [1, 5]: 12 days | T/C x 100 % [1, 5]: 109%

CCCCCCc1ccc(C(=O)N2CCN=C2N(N=Cc2c3ccccc3c(C=NN(C(=O)c3ccc(CCCCCC)cc3)C3=NCCN3C(=O)c3ccc(CCCCCC)cc3)c3ccccc23)C(=O)c2ccc(CCCCCC)cc2)cc1 [2,2'-(9,10-Anthracenediyldimethylidyne)bis[1-[1-(4-hexylbenzoyl)-4,5-dihydro-1H-imidazol-2-yl]hydra-zide] of 4-hexylbenzoic acid]
Median Survival [1, 5]: 14 days | T/C x 100 % [1, 5]: 127%

CC(C)(C)OC(=O)N1CCN=C1NN=Cc1c2ccccc2c(C=NNC2=NCCN2C(=O)OC(C)(C)C)c2ccccc12 [2,2-(9,10-Anthracenediylbis(methylidyne-1-hydrazinyl-2-ylidene)]bis[4,5-dihydro]-1H-imidazole-1-carboxylic Acid], Bis(1,1-dimethylethyl) Ester]
Median Survival [1, 9]: 17.5 days | T/C x 100 % [1, 9]: 152% | Median Survival [1, 2]: 22 days | T/C x 100 % [1, 2]: 191% | Median Survival [1, 3]: 31.5 days | T/C x 100 % [1, 3]: 274%

O=C(O)CCCC(=O)N1CCN=C1NN=Cc1c2ccccc2c(C=NNC2=NCCN2C(=O)CCCC(=O)O)c2ccccc12 [2,2-[9,10-Anthracenedlylbis(methylidyne-1-hydrazinyl-2-ylidene)]bis[4,5-dihydro-delta-oxo-1H-imidazole-1-pentanoic Acid]]
Median Survival [1, 7]: 15.5 days | T/C x 100 % [1, 7]: 141% | Median Survival [1, 6]: 18 days | T/C x 100 % [1, 6]: 164% | Median Survival [1, 3]: 19 days | T/C x 100 % [1, 3]: 173% | Median Survival [1, 5]: 23 days | T/C x 100 % [1, 5]: 209%

CC(=O)N1CCN=C1N(N=Cc1c2ccccc2c(C=NN(C(C)=O)C2=NCCN2C(C)=O)c2ccccc12)C(C)=O [2,2'-(9,10-Anthracenediyldimethylidyne)bis[1-(1-acetyl-4,5-dihydro-1H-imidazol-2-yl)hydrazide] of acetic acid]
Median Survival [1, 6]: 10.5 days | T/C x 100 % [1, 6]: 105% | Median Survival [1, 3]: 10.5 days | T/C x 100 % [1, 3]: 105% | Median Survival [1, 4]: 11 days | T/C x 100 % [1, 4]: 110%

O=C(c1ccc2ccccc2c1)N1CCN=C1N(N=Cc1c2ccccc2c(C=NN(C(=O)c2ccc3ccccc3c2)C2=NCCN2C(=O)c2ccc3ccccc3c2)c2ccccc12)C(=O)c1ccc2ccccc2c1 [2,2'-(9,10-Anthracenediyldimethylidyne)bis[1-[4,5-dihydro-1-(2-naphthalenylcarbonyl)-1H-imidazol-2-yl]-hydrazide] of 2-naphthoic acid]
Median Survival [1, 4]: 12 days | T/C x 100 % [1, 4]: 104%

Cc1ccc(S(=O)(=O)N2CCN=C2NN=Cc2c3ccccc3c(C=NNC3=NCCN3S(=O)(=O)c3ccc(C)cc3)c3ccccc23)cc1 [2,2-[9,10-Anthracenediylbis(methylidyne-1-hydrazinyl-2-ylidene)]bis[4,5-dihydro-1-[(4-methylphenyl)sulfonyl]-1H-imidazole]]
Median Survival [1, 3]: 14 days | T/C x 100 % [1, 3]: 127% | Median Survival [1, 5]: 14 days | T/C x 100 % [1, 5]: 127%

CC(=O)N1CCN=C1NN=Cc1c2ccccc2c(C=NNC2=NCCN2C(C)=O)c2ccccc12 [2,2'-[9,10-Anthracenediylbis(methylidyne-1-hydrazinyl-2-ylidene)]bis[1-acetyl-4,5-dihydro-1H-imidazole]
Median Survival [1, 8]: 10.5 days | T/C x 100 % [1, 8]: 105% | Median Survival [1, 6]: 10.5 days | T/C x 100 % [1, 6]: 105% | Median Survival [1, 2]: 10.5 days | T/C x 100 % [1, 2]: 105% | Median Survival [1, 3]: 11 days | T/C x 100 % [1, 3]: 110%
